According to US7537911B2, “ATM related kinase, ATX, nucleic acids encoding same and methods of use” (Burnham Institute for Medical Research, priority 2002, dated 2009):

What was measured:
[1] = tested on: U2OS cells; test: Clonogenic survival assay of oligonucleotide-transfected cells; assay type: cell-based, human; details: for reduction of basal level of colony outgrowth (basal clonogenic activity): non-irradiated, 10 days in culture
[2] = tested on: ATX; test: ATX protein level in oligonucleotide-treated cells (immunoblot); assay type: cell-based, human; details: U2OS
[3] = tested on: U2OS cells; test: Cell-cycle distribution by flow cytometry; assay type: cell-based, human; details: for cell-cycle distribution after IR exposure: 24 h post-irradiation
Method: To test this possibility, U2OS cells were pre-treated with S or AS oligonucleotides, exposed to IR, and cell-cycle distributions at 24 h post-irradiation were determined.

[4] = tested on: p53; test: p53 Ser-15 phosphorylation and p53 accumulation (immunoblot); assay type: cell-based, human
Source text: A major mediator of stress-induced signaling in mammalian cells is the tumor suppressor protein, p53 (Ko and Prives, Genes and Development 10:1054-1072, (1996); Ryan et al., Curr. Opin. Cell Biol. 13:332-337 (2001)). ATX phosphorylates p53 on Ser-15 (FIG. 1C), a site implicated in the regulation of p53 stability and transcriptional activity (Dumaz and Meek, Curr. Opin. Cell Biol. 13:225-231 (1999); Zhang and Xiong, Science 292:1910-1915 (2001)). Therefore, the possibility that these two proteins are functionally linked during cellular stress responses was investigated. U2OS cells were transiently transfected with a HA-ATXWT or HA-ATXKI expression plasmid, together with a GFP-encoding plasmid to allow for FACS-based enrichment of the transfected cells. The GFP+ cells were then examined for IR-induced stabilization of p53, as well as for specific phosphorylation of this protein on Ser-15. […] In contrast, overexpression of ATXWT enhanced both of these responses in cells exposed to IR.
The recognition of UV light-induced DNA damage occurs primarily during S phase, when pyrimidine dimers and other bulky lesions interfere with replication fork progression (Friedberg, DNA Repair and Mutagenesis (Washington, D.C., ASM Press) (1995); Lindahl and Wood, Cell 103:1121-1131 (1999)).
In order to further define the potential linkage between DNA replicational stress and ATX, the response of AS-treated cells to 5-fluorouracil (5-FU), an S-phase specific cytotoxic agent was examined (Danenberg et al., Seminars in Oncology. 26:621-631 (1999); Grem, Investigational New Drugs 18:299-313 (2000)).
Changes in phosphorylation at Ser-15 are typically accompanied by alterations in the expression of the p53 protein, which complicates the interpretation of results obtained by immunoblotting of whole cell extracts with phospho-Ser-15-specific antibodies. In order to confirm that reduced ATX expression interferes with stress-induced Ser-15 phosphorylation, U2OS cells were transfected with either the S or AS oligonucleotide, and then were pretreated with the proteasome inhibitor, LLnV, to stabilize p53. In the presence of LLnV, the p53 level in each test population was relatively unaffected by UV exposure (data not shown). However, the ratio of phospho-Ser-15 to total p53 protein was increased by UV irradiation of both the mock-transfected and S oligonucleotide-treated cells.

[5] = tested on: hChk2; test: IR-dependent phosphorylation of hChk2 (immunoblot); assay type: cell-based, human; details: U2OS
Source text: Recent findings point toward ATM as a critical upstream regulator of the activity of the checkpoint kinase, hChk2, in IR-damaged cells (Ahn et al., Cancer Res. 60:5934-5936 (2000); Melchionna et al., Nat. Cell Biol. 2:762-765 (2000)). To determine whether ATX was also involved in hChk2 activation, the effect of AS oligonucleotide treatment on the IR-dependent phosphorylation of hChk2 was examined. […] Moreover, the differential effects of AS treatment on p53 expression versus hChk2 activation argue against the possibility that AS exposure leads to nonspecific inhibition of checkpoint signaling responses to IR-induced DNA damage.

[6] = target: T1, ATX (Homo sapiens, UniProt Q96Q15); test: Immune complex kinase assay, immunoprecipitated HA-ATXWT, GST-p53 1-70 substrate; assay type: biochemical; details: pretreatment of immunoprecipitated HA-ATXWT; GST-p53 1-70 phosphorylation; read-out: drug concentration required for 50% inhibition (IC50) of ATX activity in vitro
T1 construct: expressed in transfected cells; host or cells: HEK 293T, pcDNA3.1, immunoprecipitated with anti-HA antibody
T1 sequence (Q96Q15 141-3661 S144C): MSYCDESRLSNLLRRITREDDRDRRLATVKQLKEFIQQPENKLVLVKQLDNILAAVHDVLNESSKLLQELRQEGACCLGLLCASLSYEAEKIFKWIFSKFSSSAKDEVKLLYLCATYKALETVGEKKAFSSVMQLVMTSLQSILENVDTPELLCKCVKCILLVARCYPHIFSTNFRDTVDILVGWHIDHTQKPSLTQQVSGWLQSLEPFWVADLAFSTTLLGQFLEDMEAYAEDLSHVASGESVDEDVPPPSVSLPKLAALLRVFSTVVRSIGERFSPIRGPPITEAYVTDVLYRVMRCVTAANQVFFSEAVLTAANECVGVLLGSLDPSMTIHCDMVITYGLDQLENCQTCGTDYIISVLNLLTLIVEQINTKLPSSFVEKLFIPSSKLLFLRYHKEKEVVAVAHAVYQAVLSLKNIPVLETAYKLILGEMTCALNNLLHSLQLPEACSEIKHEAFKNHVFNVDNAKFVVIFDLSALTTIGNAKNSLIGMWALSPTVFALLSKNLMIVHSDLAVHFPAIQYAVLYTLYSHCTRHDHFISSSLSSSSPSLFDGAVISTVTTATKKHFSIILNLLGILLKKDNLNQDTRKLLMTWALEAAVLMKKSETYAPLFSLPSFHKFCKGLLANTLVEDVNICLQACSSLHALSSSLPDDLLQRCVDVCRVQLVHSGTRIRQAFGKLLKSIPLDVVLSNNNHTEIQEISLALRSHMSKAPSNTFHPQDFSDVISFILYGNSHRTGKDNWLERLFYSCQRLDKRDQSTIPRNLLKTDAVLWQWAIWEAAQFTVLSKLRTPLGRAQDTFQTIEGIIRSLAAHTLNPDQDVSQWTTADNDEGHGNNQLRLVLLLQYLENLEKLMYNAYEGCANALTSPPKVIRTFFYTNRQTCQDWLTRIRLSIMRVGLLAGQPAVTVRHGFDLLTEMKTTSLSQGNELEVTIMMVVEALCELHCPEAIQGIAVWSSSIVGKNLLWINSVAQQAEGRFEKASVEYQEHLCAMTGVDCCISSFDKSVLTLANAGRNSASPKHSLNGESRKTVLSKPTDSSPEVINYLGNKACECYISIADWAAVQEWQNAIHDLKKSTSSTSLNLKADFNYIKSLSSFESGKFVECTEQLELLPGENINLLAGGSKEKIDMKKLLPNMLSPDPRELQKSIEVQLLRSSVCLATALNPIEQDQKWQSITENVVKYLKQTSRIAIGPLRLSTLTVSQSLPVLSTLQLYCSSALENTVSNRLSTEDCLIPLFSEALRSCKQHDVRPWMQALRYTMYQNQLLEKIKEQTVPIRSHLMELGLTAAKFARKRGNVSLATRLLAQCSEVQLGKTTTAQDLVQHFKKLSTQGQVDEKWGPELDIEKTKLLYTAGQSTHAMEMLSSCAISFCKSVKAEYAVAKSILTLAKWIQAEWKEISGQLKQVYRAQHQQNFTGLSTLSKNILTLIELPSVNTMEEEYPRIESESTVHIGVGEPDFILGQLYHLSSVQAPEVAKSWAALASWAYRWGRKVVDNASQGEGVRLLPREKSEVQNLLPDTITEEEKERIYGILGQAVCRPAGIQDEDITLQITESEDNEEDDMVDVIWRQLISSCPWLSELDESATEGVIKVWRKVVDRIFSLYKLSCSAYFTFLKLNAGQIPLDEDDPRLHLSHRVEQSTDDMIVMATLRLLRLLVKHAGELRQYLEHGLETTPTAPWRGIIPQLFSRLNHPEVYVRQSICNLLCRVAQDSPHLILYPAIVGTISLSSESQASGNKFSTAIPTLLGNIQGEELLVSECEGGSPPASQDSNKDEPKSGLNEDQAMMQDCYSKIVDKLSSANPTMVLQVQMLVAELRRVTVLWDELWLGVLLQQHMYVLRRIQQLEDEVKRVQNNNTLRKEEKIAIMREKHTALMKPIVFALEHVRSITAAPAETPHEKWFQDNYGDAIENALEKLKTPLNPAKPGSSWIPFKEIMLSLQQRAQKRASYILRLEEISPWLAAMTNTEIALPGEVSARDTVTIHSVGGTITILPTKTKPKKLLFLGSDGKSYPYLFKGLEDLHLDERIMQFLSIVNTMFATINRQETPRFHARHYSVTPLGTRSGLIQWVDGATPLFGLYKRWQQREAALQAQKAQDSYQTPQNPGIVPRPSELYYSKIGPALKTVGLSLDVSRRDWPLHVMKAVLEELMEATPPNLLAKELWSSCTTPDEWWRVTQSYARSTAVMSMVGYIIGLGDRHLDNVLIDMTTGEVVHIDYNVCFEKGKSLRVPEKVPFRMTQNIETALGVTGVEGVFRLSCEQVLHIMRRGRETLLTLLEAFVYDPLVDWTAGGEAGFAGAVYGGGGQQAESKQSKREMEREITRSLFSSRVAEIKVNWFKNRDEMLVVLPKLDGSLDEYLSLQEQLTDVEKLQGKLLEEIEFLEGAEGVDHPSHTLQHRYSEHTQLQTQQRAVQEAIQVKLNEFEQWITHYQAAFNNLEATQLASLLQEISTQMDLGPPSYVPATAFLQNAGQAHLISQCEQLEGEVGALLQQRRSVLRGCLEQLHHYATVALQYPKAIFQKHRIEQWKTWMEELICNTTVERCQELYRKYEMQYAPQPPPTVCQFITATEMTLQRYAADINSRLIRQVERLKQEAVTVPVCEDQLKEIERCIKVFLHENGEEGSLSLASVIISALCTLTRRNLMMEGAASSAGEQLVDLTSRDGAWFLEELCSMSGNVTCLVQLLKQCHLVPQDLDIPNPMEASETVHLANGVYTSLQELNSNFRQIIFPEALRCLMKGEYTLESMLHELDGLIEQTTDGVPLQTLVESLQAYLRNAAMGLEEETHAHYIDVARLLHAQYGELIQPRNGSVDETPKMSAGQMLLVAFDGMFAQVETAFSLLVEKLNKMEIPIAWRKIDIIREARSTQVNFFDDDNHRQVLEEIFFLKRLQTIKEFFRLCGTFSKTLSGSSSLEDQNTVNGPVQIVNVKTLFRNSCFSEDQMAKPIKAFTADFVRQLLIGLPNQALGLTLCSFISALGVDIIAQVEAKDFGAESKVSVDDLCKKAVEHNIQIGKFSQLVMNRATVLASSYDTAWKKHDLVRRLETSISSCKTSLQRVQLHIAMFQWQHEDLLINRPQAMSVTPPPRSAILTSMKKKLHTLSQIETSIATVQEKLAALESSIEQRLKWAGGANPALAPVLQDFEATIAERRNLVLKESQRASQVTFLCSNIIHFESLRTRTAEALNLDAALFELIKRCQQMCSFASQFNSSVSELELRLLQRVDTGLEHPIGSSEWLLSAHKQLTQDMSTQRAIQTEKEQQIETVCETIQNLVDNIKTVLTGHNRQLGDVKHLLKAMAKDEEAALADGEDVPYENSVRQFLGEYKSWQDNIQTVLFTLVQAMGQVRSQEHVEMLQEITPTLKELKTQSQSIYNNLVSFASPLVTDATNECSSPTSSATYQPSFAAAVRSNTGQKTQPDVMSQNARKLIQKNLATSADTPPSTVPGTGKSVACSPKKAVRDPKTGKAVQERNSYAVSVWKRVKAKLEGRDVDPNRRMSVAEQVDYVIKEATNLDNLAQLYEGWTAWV

For “5′-AGCAAGCTCCCTCCTGTCTC-3′ (phosphorothioate backbone, further chemistry not given here) [AS oligonucleotide, antisense phosphorothioate oligonucleotide complementary to ATX nucleotides 210-229]”, the “sensitivity to suppressive effects of IR and UV on clonogenic survival” value ([1]; IR (FIG. 2C) and UV) was “significantly more sensitive”, the “reduction of basal level of colony outgrowth (basal clonogenic activity)” value [1] was 75% and the “expression levels of control proteins ATM and PLC-γ1” value ([2]; immunoblot) was “no significant change”. The “reduction in ATX protein” value ([2]; over 10 independent trials) was 50-90%, the “cell-cycle distribution after IR exposure” value [3] was “arrested primarily in G2/M phase” and the “cell-cycle distribution in the absence of IR” value ([3]; compared to S oligonucleotide-treated cells) was “reduction in the percentage of G1 phase cells, and a concomitant accumulation of G2/M phase cells”. For the same molecule, the “level of p53 induction by 5-FU” value ([4]; AS-treated U2OS versus S-treated) was “identical to that observed in their S-treated counterparts”, the “stoichiometric increase in Ser-15 phosphorylation triggered by UV-induced stress” value ([4]; U2OS pretreated with proteasome inhibitor LLnV) was “effectively blocked” and the “phosphorylation and stabilization of p53 induced by IR exposure” value ([4]; U2OS, IR) was “reduced both the phosphorylation and stabilization of p53”. The “Ser-15 phosphorylation and p53 protein accumulation in UV-damaged cells” value ([4]; U2OS, UV) was “severely impaired” and the “IR-dependent phosphorylation of hChk2” value [5] was “retained the ability to phosphorylate hChk2”.

With “5′-GAGACAGGAGGGAGCTTGCT-3′ (all phosphorothioate, sugars by position and methylation of C not given here) [S oligonucleotide, reference compound]” the “reduction of basal level of colony outgrowth (basal clonogenic activity)” value [1] was 25% and the “cell-cycle distribution after IR exposure” value [3] was “accumulated in both G1 and G2/M phases”.

COC[C@H]1OC(=O)c2coc3c2[C@@]1(C)C1=C(C3=O)[C@@H]2CCC(=O)[C@@]2(C)C[C@H]1OC(C)=O [wortmannin] showed an IC50 [6] of 10 to 100 nM.

O=c1[nH]cc(F)c(=O)[nH]1 [5-FU, 5-fluorouracil, reference compound] was tested, and the “p53 Ser-15 phosphorylation” value ([4]; U2OS treated with the drug) was “not accompanied by an increase in Ser-15 phosphorylation” and the p53 expression ([4]; U2OS treated with the drug) was “increased p53 expression to levels similar to those observed in UV-irradiated cells”.
